Test results taken from publication PMC5663395, “Chemical Validation of Methionyl-tRNA Synthetase as a Druggable Target in Leishmania donovani” (ACS Infectious Diseases, 2017).
Where “and” joins values, the source holds several entries; their conditions need not be identical. Identical values can stand only once.

Tests used:
[1] = system: Leishmania donovani liver parasite burden; assay: Mouse visceral leishmaniasis efficacy model; conditions: 50 mg/kg oral twice daily for 10 days, 50 mg/kg
[2] = target: LdMetRS (Leishmania donovani, UniProt A0A3Q8IBX2); assay: LdMetRS biochemical enzyme assay (BIOMOL Green)
Sequence of LdMetRS (A0A3Q8IBX2 entry or part of it): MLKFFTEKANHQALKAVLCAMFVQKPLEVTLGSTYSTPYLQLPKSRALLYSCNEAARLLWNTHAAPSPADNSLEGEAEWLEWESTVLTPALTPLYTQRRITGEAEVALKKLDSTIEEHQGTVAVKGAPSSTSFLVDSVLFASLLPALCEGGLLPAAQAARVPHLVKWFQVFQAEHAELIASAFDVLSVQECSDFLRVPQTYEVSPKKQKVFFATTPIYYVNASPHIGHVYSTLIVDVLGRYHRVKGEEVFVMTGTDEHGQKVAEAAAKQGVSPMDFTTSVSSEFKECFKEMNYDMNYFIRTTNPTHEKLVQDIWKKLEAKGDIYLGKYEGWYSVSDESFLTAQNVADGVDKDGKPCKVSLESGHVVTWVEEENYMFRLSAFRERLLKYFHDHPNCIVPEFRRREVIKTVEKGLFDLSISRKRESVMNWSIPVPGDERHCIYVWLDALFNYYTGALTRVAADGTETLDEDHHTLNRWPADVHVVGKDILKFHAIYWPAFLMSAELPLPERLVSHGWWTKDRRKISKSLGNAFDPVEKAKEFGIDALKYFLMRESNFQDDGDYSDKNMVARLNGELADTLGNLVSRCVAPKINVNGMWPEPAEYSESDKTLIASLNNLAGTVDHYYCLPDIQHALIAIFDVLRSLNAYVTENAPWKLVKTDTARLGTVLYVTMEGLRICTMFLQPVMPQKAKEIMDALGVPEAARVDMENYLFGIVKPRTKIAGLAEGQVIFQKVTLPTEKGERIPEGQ
Procedure: LdMetRS Assay Development and Kinetic Parameter Determinations
Activity of the LdMetRS enzyme was determined by monitoring levels of pyrophosphate released during the first step of the enzymatic reaction. The pyrophosphate formed was converted to two inorganic phosphate molecules using a pyrophosphatase enzyme and levels of the resulting phosphate molecules measured using the BIOMOL® Green reagent (Enzo Life Sciences) 2.
Following optimization of the assay buffer and determination of the enzyme linearity, 384-well plate based assays were carried out at room temperature in a 50 μl reaction volume containing 30 mM Tris, pH 8.0, 140 mM NaCl, 30 mM KCl, 40 mM MgCl2, 0.01% (v/v) Brij-35, 1 mM DTT, 1 U/ml pyrophosphatase, 50 nM recombinant LdMetRS, and varying concentrations of substrates. Michaelis constants for the ATP and methionine substrates were determined in an end point assay using the above buffer and enzyme conditions. Data were fitted to the modified Michaelis-Menten equations […]
Equation 1 (Hill equation): […]
Equation 2 (High substrate inhibition Michaelis-Menten equation): […]
LdMetRS Inhibitor Studies
All test compounds were solubilized in 100% DMSO to a concentration of 10 mM. To generate IC50 data for the compounds, assay ready plates containing 10-point inhibitor curves (half-log serial dilutions) were prepared using an Echo® 550 (Labcyte).
Following preparation of the inhibitor curves, assays were carried out at room temperature in clear, flat bottom, polystyrene, 384-well plates (Greiner). Each assay was performed in a 50 μl reaction volume containing 30 mM Tris; pH 8.0, 140 mM NaCl, 30 mM KCl, 40 mM MgCl2, 0.01% (v/v) Brij-35, 1 mM DTT, 1 U/ml pyrophosphatase, 50 nM recombinant LdMetRS, 50 µM methionine and 100 µM […]
Assays were performed by adding 25 μl buffer with enzyme to assay plates (with buffer only added to ‘no enzyme’ control wells) before the reaction was initiated with the addition of a 25 μl mix containing methionine, ATP and pyrophosphatase to all wells. Following a 120 min reaction at room temperature the assay was stopped with the addition of 50 μl BIOMOL® Green. The BIOMOL® Green signal was allowed to develop for 30 min before the absorbance of each well was read at 650 nm using an EnVision multilabel plate reader (PerkinElmer Life Sciences). All liquid dispensing steps were carried out using a Thermo Scientific WellMate dispenser (Matrix).
ActivityBase from IDBS (version 8.0.5.4) was used for data processing and analysis. All IC50 curve fitting was undertaken using ActivityBase XE (version 7.7.1) from IDBS. A four-parameter logistic dose-response curve was utilized with prefit used for all four parameters.
For DDD806905 Kiapp determinations, data fitting to the Morrison equation (equation 3) was carried out using GraFit v6.0 (Erithacus Software). It should be noted that data for fitting to the Morrison equation was normalised to a ‘100 µM DDD806905’ control rather than a ‘no enzyme’ control as […]
Equation 3 (Morrison equation): […]
vi = K1 −−([ ] [ ]ET+IT+Ki)−([ ] [ ]ET+IT+i)[ ] [ ]TIE4T
LdMetRS Mode of Inhibition Studies
To establish the mode of inhibition of DDD806905, data sets (generated using the BIOMOL® Green assay platform previously described) were collected by varying both the inhibitor and substrate concentrations. Using GraFit v6.0 (Erithacus Software) each data set was individually fitted to the Michaelis-Menten equation or the modified high substrate inhibition Michaelis-Menten equation described above (equation 2), and the resulting Lineweaver-Burk plots were examined for diagnostic […]
Data sets were then globally fitted to the appropriate model (with equations 4 and 5 used for […]
If more than one model appeared possible, then data were fitted to both and examined for significance using the F-test function in GraFit.

[3] = pKa measurement (Sirius T3, UV-metric); assay type: physicochemical
Procedure: calculated, both in terms of pEC50 values. MIC (minimum inhibitory concentration) values are defined as the lowest concentration tested at which maximal inhibition is reached.
THP-1 cells were differentiated in 96-well plates with PMA as described above. Following differentiation the cells were treated for 30 min with dose-response curves of test compounds in presence of 100 nM LysoTracker Red DND-99 (Thermo Fisher) and 5 µg/ml Hoechst 33342. Next cells were washed 3 times with Hanks Buffered Saline Solution (Gibco) and imaged on a Perkin Elmer Operetta system. An image analysis algorithm to measure mean Lysotracker Red DND-99 intensity per cell was developed in Columbus. […]
To measure the pKa of DDD806905, a fast UV-metric method was performed using a Sirius T3 instrument (Sirius Analytical, U.K.). The calculation of the pKa was determined using the Sirius T3 refine software (Sirius Analytical, U.K.). In brief, the UV-metric pKa method is based on measuring pH during an acid-base titration and monitoring UV absorbance shift. […] The appearance of precipitate was monitored throughout the experiment by a turbidity sensing device. […] The pKas of DDD806905 was determined at the pH where there was maximal change in UV absorbance with respect to pH. […]
LogD7.4 values were quantified using a Sirius T3 instrument (Sirius Analytical, U.K.). […]

With `Cl.Cl.O=c1nc(NCCCNCc2cc3c(Cl)cc(Cl)cc3[nH]2)[nH]c2ccccc12` [DDD806905, 2-((3-(((4,6-dichloro-1H-indol-2-yl)methyl)amino)propyl)amino)quinazolin-4(1H)-one dihydrochloride] the “reduction (knock-down) of liver parasite burden (LDU) vs vehicle” value [1] was 19% and 19.4%, the “mode of inhibition with respect to ATP” value [2] was “mixed inhibition” and the “mode of inhibition with respect to methionine” value [2] was “competitive inhibition”. It also gave a Ki ([2]; Ki app (Morrison equation), active enzyme concentration 39 nM as constant) of 41 nM, a Ki ([2]; Ki, competitive inhibition with respect to methionine, global competitive inhibition model, Ki ± SE) of 18 nM and a Ki ([2]; Ki, mixed inhibition with respect to ATP, mixed inhibition model, Ki ± SE) of 21 nM. The IC50 ([2]; LdMetRS IC50 (μM), Table 1) was 0.09 µM, the IC50 ([2]; LdMetRS IC50, 50 nM LdMetRS, 50 μM methionine, 100 μM ATP) was 0.094 µM and the IC50 ([2]; LdMetRS IC50, Fig S5A: methionine 50 µM, ATP 500 µM) was 0.11 µM. The IC50 ([2]; LdMetRS IC50, Fig S5A: methionine 500 µM, ATP 500 µM) was 0.433 µM, the IC50 ([2]; LdMetRS IC50, Fig S5B: ATP 50 µM, methionine 500 µM) was 0.098 µM and the IC50 ([2]; LdMetRS IC50, Fig S5B: ATP 500 µM, methionine 500 µM) was 0.38 µM. The IC50 ([2]; LdMetRS IC50, Fig S5C: methionine and ATP both 50 µM) was 0.037 µM, the IC50 ([2]; LdMetRS IC50, Fig S5C: methionine and ATP both 500 µM) was 0.433 µM and the “Ki′ (ATP mode of inhibition study)” value ([2]; mixed inhibition model, ATP as variable substrate) was 227 ± 23 nM. For the same compound, the “compound present in un-ionized state” value ([3]; pH 5.6) was roughly 0% and the “compound present in un-ionized state” value ([3]; pH 7.3) was 0.01%.
